Laboratory results: patent US20140275094A1, “METHOD FOR TREATING PULMONARY ARTERIAL HYPERTENSION IN A PATIENT NOT HAVING IDIOPATHIC PULMONARY FIBROSIS” (GILEAD SCIENCES, INC., priority 2012, published 2014)

Tests used:
[1] = molecular target: T1, OATP1B3 (Homo sapiens, UniProt Q9NPD5); test: Inhibition of OATP1B3, transfected CHO cells; format: cell-based; conditions: OAT1B3
T1 construct: expressed in transfected cells; host or cells: CHO
T1 sequence (Q9NPD5 1-702): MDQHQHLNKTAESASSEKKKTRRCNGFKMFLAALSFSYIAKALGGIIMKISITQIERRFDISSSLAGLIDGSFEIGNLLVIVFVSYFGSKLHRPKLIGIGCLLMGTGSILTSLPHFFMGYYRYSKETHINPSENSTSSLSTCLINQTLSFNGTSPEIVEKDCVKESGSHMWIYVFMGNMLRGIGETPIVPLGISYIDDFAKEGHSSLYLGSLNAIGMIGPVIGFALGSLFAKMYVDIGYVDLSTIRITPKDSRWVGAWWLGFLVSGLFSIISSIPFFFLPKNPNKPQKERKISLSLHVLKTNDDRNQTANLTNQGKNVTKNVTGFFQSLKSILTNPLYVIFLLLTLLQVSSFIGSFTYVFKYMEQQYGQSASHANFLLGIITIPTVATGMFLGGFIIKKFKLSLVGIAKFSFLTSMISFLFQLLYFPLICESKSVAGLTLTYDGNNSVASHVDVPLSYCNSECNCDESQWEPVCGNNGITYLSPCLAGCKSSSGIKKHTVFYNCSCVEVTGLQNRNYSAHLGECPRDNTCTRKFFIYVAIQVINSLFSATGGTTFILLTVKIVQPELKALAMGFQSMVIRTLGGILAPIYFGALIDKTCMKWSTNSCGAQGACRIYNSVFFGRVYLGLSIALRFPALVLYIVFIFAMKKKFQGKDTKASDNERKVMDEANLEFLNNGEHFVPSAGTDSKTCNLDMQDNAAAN
Experimental: (§1) Inhibition constants (IC50) were measured for human bile salt export pump (BSEP), sodium taurocholate cotransporting polypeptide (NTCP), multidrug resistance protein 2 (MRP2), P-glycoprotein (Pgp), breast cancer resistance protein (BCRP), organic anion-transporting polypeptide 1B1 (OATP1B1), and OATP1B3 in transfected cell-lines. Known inhibitors were used as positive controls.

[2] = test system: human hepatocytes; conditions: cited from earlier work
[3] = molecular target: T2, sodium taurocholate cotransporting polypeptide (NTCP) (Homo sapiens, UniProt Q14973); test: Inhibition of hepatic transporter NTCP, transfected CHO cells; format: cell-based
T2 construct: expressed in transfected cells; host or cells: Chinese Hamster Ovary (CHO)
T2 sequence (Q14973 1-349): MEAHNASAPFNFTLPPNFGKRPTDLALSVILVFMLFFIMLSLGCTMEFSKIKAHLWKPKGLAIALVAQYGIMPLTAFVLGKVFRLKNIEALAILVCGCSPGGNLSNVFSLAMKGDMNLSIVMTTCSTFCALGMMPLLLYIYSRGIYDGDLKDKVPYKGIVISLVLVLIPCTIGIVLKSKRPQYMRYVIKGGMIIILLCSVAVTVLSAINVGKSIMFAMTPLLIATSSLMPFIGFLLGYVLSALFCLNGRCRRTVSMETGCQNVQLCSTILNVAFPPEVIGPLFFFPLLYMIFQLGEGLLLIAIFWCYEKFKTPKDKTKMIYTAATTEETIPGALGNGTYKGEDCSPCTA
Experimental: as §1

[4] = molecular target: T3, organic anion-transporting polypeptide 1B1 (OATP1B1) (Homo sapiens, UniProt Q9Y6L6); test: Inhibition of OATP1B1, transfected CHO cells; format: cell-based
T3 construct: expressed in transfected cells; host or cells: CHO
T3 sequence (Q9Y6L6 1-691): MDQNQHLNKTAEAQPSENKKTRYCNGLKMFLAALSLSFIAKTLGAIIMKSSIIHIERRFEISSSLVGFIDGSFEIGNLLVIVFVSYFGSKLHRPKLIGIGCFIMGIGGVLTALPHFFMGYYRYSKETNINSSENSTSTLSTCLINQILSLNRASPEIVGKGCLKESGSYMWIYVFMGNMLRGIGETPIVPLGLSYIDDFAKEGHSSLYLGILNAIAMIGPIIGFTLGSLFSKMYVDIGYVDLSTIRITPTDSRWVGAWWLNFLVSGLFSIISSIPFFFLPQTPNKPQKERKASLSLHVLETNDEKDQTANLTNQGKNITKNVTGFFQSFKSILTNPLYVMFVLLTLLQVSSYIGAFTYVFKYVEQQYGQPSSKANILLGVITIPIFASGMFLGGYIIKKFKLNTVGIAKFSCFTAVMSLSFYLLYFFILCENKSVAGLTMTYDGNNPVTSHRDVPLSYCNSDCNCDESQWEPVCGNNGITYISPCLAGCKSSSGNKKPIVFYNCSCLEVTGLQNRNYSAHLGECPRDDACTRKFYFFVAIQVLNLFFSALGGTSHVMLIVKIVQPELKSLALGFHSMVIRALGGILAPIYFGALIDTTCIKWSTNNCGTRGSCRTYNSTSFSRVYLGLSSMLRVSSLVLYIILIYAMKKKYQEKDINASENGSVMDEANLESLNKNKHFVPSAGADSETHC
Experimental: as §1

IC50 ([3]; NTCP) [µM] | Compound | IC50 [1] [µM] | effect on hepatobiliary transporter activity [2] | effect on NTCP [3] | IC50 [4] [µM]
 | COC(c1ccccc1)(c1ccccc1)[C@H](Oc1nc(C)cc(C)n1)C(=O)O [Ambrisentan, (25)-2-[(4,6-dimethylpyrimidin-2-yl)oxy]-3-methoxy-3,3-diphenylpropanoic acid] | 44.6 ± 23.8 | less potent | no measurable effect | 47 ± 21.3
36.5 | COc1ccccc1Oc1c(NS(=O)(=O)c2ccc(C(C)(C)C)cc2)nc(-c2ncccn2)nc1OCCO [Bosentan] | 5.2 ± 2.1 | decreased transporter activity to the greatest extent | inhibition was observed | 5 ± 2
